Three compounds from patent publication US20020165197A1, “Modulation of GSK-3beta activity and its different uses” (priority 2001, published 2002) can be followed below.

Assay [1] deals with GSK-3β. Briefly: Western blot of GSK-3β (total and phosphorylated) in B16-F10 melanoma cell extracts. The class given is cell-based. On the procedure: (§1) Cells (B16-F10 melanoma cells) were maintained in RPMI medium supplemented with 10% […], 200 mM glutamine, 100 U/ml penicillin and 100 μg/ml streptomycin. They were transferred to a freshly prepared medium twice weekly. For all studies we used serum starved cells. FBS was omitted from the cultures for 18 hours and the experiment was carried out on monolayers of cells in RPMI medium supplemented with 1% FBS in a 37° C., 5% CO2 incubator.
(§2) To detect the level of expression of PKA, GSK-3β (total and phosphorylated), PKB/Akt (total and phosphorylated), β-catenin, c-myc and cyclin D1, protein extract from IB-MECA treated or untreated serum-starved B16-F10 melanoma cells were utilized. […] Further, to mimic the chain of events occurring upon activation of A2R, cells were incubated with 8Br cAMP.
(§3) At the end of the incubation period, cells were rinsed with ice-cold PBS and lysed in ice-cold lysis buffer (TNN buffer, 50 mM tis buffer pH=7.5, 150 mM NaCl, NP 40). Cell debris was removed by centrifugation at 7500×g for 10 min. Supernatant was utilized for Western Blot analysis. Protein concentrations were determined using the Bio-Rad protein assay dye reagent. […] Bands were recorded using BCIP/NBT color development kit (Promega, Madison, Wis., USA). […]
(In general: Immunoblotting shows a protein as a band on a membrane.)

Assay [2] has as its system HIV-1 SF126. Description: p24 ELISA, HIV replication in SF infected microglia. The assay is classed as cell-based. As to the method: Purified primary human fetal astrocytes and microgial cells were prepared from 16 to 20 week old human fetal brain tissue by a modified procedure based on the methods of Cole and de Vellis [R. Cole and J. de Vellis. In: Protocols for neural cell cure. S. Fedoroff and A. Richardson (Eds.) Human Press, Totowa, N.J., pp. is 117-130. (1997)], and Yong and Antel [V. W. Yong and J. P. Antel. In: Protocols for neural cell culture. S. Fedoroff and A. Richardson (Eds.) Humana Press, Totowa, N.J., pp. 157-172 (1997)]. Brain tissue was washed in ice-cold Hank's Balanced Salt Solution (HBSS) containing the antibiotics gentamycin and arnphotericin B. Blood vessels and meninges were removed and the tissue was minced into small pieces. After mincing, the tissue was enzymatically dissociated by incubation in 0.05% trypsin and mechanically disrupted by passing several times over a 75 μm nylon mesh filter. The resulting single cell suspension was washed, pelleted and plated at a density of 2-10×10^6 cells per 162 cm^2 flask in DMEM:F12 containing 10% fetal calf […], gentamycin, and L-glutamine. After 7-10 days of growth, microglial cells were isolated by placement on rotary shaker at 200 rpm in a 37° C. incubator overnight. The non-adherent cells were removed and allowed to attach to a new flask for 1 to 3 h. Following attachment, the cells were washed and refed with media containing 10% fetal calf serum, insulin, gentamycin, L-gluntamine, and N1 supplement. Astocyes were subeultured from adherent cells in media containing 15% fetal calf serum, insulin, gentamycin, and L-glutamine and contaminating microglia were removed by repeated rotary shaking. Cultured astrocytic and nicroglial cells were plated at a density of 2.5×10^5 per well into 6 well plates for subseqent infection.
Brain derived primary HIV-1 isolates SF162 and JR-FL were cultured in human peripheral blood mononuclear cells (PBMC) essentially as described by Gartner and Popovic^12. PBMC were isolated from human buffy coat by ficoll gradient and plated at a density of 2.5×10^6 per ml in RPMI containing 10% fetal calf serum and gentamycin. Cells were stimulated by the addition of 5 μg/ml of phytohemagglutinin (PHA) for 48 h. After stimulation, cells were infected with either SF162 or JR-FL and cultured for 7 to 10 days until high titres of MIV-1 were detected in the supernatant by p24 ELISA assay. When viral production was optimal, the cells were pelleted, the supernatant containing HIV-1 was aliquoted and stored at −70° C. until use. P24 ELISA assay was performed on an aliquot of stock to determine the viral titre.
Microglial or astrocytic cells (2.5×10^5) were plated per well into 6-well plates. The next day, cells were washed and refed with fresh medium. […]
Background: An ELISA detects its analyte on a solid surface through an enzyme-linked reagent.

In assay [3] the test system is HIV-1 SF162. Description: p24 ELISA, HIV replication in SF162 infected astroglia. The assay is classed as cell-based. Conditions: Astroglia/SF-162, 0.01 (μM); HIV control 313.38. On the procedure: (§4) Purified primary human fetal astrocytes and microgial cells were prepared from 16 to 20 week old human fetal brain tissue by a modified procedure based on the methods of Cole and de Vellis [R. Cole and J. de Vellis. In: Protocols for neural cell cure. S. Fedoroff and A. Richardson (Eds.) Human Press, Totowa, N.J., pp. is 117-130. (1997)], and Yong and Antel [V. W. Yong and J. P. Antel. In: Protocols for neural cell culture. S. Fedoroff and A. Richardson (Eds.) Humana Press, Totowa, N.J., pp. 157-172 (1997)]. Brain tissue was washed in ice-cold Hank's Balanced Salt Solution (HBSS) containing the antibiotics gentamycin and arnphotericin B. Blood vessels and meninges were removed and the tissue was minced into small pieces. After mincing, the tissue was enzymatically dissociated by incubation in 0.05% trypsin and mechanically disrupted by passing several times over a 75 μm nylon mesh filter. […]
(§5) Brain derived primary HIV-1 isolates SF162 and JR-FL were cultured in human peripheral blood mononuclear cells (PBMC) essentially as described by Gartner and Popovic^12. […] After stimulation, cells were infected with either SF162 or JR-FL and cultured for 7 to 10 days until high titres of MIV-1 were detected in the supernatant by p24 ELISA assay. […]

The test system of assay [4] is hair growth. Briefly: Hair growth in nude mice inoculated with HCT-116 colon carcinoma cells. The class given is in vivo, Nude mice (BalbC origin). Conditions: 6 μg/kg body weight orally daily, 30 days. On the procedure: Nude mice (BalbC origin) were subcutaneously inoculated with HCT16 human colon carcinoma cells, which thus developed a visible tumor.
Cl-IB-MECA was dissolved in DMSO and kept as a stock solution. in a concentration of 10 mM. Before administration to the mice, the stock solution was diluted with PBS to a concentration so that each mice received a dosage of 6 μg/kg body weight.
Nude mice (BalbC origin) were subcutaneously inoculated wit HCT-16 human colon carcinoma cells. These mice were divided into two groups:
Study group which was daily and orally administered with Cl-IB-MECA (6 μg/kg body weight) dissolved in DMSO and diluted with PBS.
Control group which was daily and orally administered with DMSO only.

Assay [5] has as its system β-catenin. Briefly: Western blot of tumor tissue from HCT-116 colon carcinoma bearing mice: β-catenin. The following applies: 6 μg/Kg orally every second day, 30 days. The assay is classed as in vivo, Balb/C nude mice. As to the method: (§6) A similar series of studies was utilized in a colon carcinoma murine animal model to determine whether elements of the Wnt pathway altered by IB-MECA in vitro, occur as well in viro with Cl-B-MECA (another A3RAg). The animal model was generated by subcutaneous injection of 1.2×10^6HCT-116 human colon carcinoma cells to the flank of Balb/C nude mice. The mice were treated orally (by gavage), every second day with 6 μg/Kg Cl-IB-MECA.
(§7) After 30 days the mice were sacrificed and tissue samples from the colon carcinoma foci were harvested and analyzed for the expression of β-catenin and cyclin D1.

The subject of assay [6] is cyclin D1. Briefly: Western blot of tumor tissue from HCT-116 colon carcinoma bearing mice: cyclin D1. The following applies: 6 μg/Kg orally every second day, 30 days. The assay is classed as in vivo, Balb/C nude mice. On the procedure: as §6, §7
For assay [7], the system named is HIV-1 JR-FL. Description: p24 ELISA, HIV replication in JR-FL infected astroglial cells. The class given is cell-based. The following applies: Astroglia/JR-FL, 0.01 (μM, every 24 hours); HIV control 22.83. On the procedure:
as §4, §5

For assay [8], the system named is c-myc. Briefly: Western blot of tumor tissue from HCT-116 colon carcinoma bearing mice: c-myc. The following applies: 6 μg/Kg orally every second day, 30 days. The class given is in vivo, Balb/C nude mice.
Assay [9] relates to PKAc. Description: Western blot of PKAc in B16-F10 melanoma cell extracts. The assay is classed as cell-based. The following applies: antagonist 0.01 μM with IB-MECA. As to the method:
as §1, §2, §3

In assay [10] the test system is B16-F10 melanoma cells. Description: [3H]-thymidine incorporation cell proliferation assay. The class given is cell-based. The following applies: antagonist 0.01 μM added in the presence of IB-MECA. On the procedure: as §1
[^3H]-thymidine incorporation assay as used to evaluate cell growth. B136-F10 melanom Cella (1.5×10^4/ml) were incubated with IB-MECA (0.0 μM-10 μM) in 96-well microtiter plates for 24 hours. To test whether IB-MECA exerted its effect on tumor cells through binding to A3AR, an antagonist to A3AR, MRS-1523, was added to the cell cultures in the presence of IB-MECA. Cultures of B16-F10 melanoma cells tat were incubated in the presence of MRS-1523 only, served as controls. For the last 6 h of incubation, each well was pulsed with 1 μCi [3H]-thymidine. Cells were harvested and the [^3H]-thyine uptake was determined in an LKB liquid scintillation counter (LKB, Piscataway, N.J., USA). These experiments were repeated at least 10 times.

In the case of `Nc1ncnc2c1nc(Br)n2[C@@H]1O[C@@H]2COP(=O)(O)O[C@H]2[C@H]1O` [8Br cAMP], the “level of GSK-3β” value in [1] (8Br cAMP added to culture to mimic A2AR activation) is given as “decrease”.

As to `CNC(=O)C1OC(n2cnc3c(NCc4cccc(I)c4)nc(Cl)nc32)C(O)C1O` (centres unmarked) [Cl-IB-MECA], the “p 24 Day 10 after infection” value in [2] (0.01, HIV control 209.18) was 111.05 pg/mL; in [2] (0.1, HIV control 209.18), 80.37 pg/mL. Also, the “p 24 Day 5 after infection” value in [2] (0.01, HIV control 267.99) is given as 127.03 pg/mL; in assay [2] (0.1, HIV control 267.99), 10.81 pg/mL. Moreover, the “p 24 Day 5” value in assay [3] is reported as 288.77 pg/mL; in assay [7] it was 8.45 pg/mL. Moreover, the “hair growth on the skin” value in [4] is on record as “hair grew”. The “level of β-catenin in tumor tissue” value in assay [5] is given as “decrease”. Moreover, the “level of cyclin D1 in tumor tissue” value in [6] is recorded as “decrease”. The “level of c-myc in tumor tissue” value in assay [8] is “decrease”.

In the case of `CCCOC(=O)c1c(-c2ccccc2)nc(CC)c(C(=O)SCC)c1CCC` [MRS-1523], the “effect on the IB-MECA induced increase in GSK-3β levels” value in assay [1] (antagonist 0.01 μM with IB-MECA) is on record as “reversed”. The “effect on the IB-MECA induced decrease in PKAc” value in assay [9] was “reversed”. The “effect on the inhibitory effect of IB-MECA on melanoma cell growth” value in assay [10] was “reversed the inhibitory effect of IB-MECA”.
